4 compounds from ChEMBL document CHEMBL1133424, “Fluoresceinated FKBP12 ligands for a high-throughput fluorescence polarization assay” (Bioorg Med Chem Lett, 2000) can be followed below.

Test [1] deals with T1, Peptidyl-prolyl cis-trans isomerase FKBP1A (Homo sapiens, UniProt P62942). Description: Binding affinity of compound for FK506 binding protein 12.
The target in test [2] is T1, Peptidyl-prolyl cis-trans isomerase FKBP1A. In words: Concentration required to produce a half-maximal FP signal at against FK506 binding protein 12 at ligand concentration of 100 nM.

The structures appear in SMILES notation.

T1 sequence (P62942 whole entry): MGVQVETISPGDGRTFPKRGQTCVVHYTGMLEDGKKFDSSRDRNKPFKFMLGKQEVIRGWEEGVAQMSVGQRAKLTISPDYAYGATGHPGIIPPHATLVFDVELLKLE

In the case of `CC(C)(C)CC(=O)C(=O)N1CCCC[C@H]1C(=O)OCCC/N=C(S)/N=C1\C=CC(=C2c3ccc(O)cc3Oc3cc(O)ccc32)C(C(=O)O)=C1`, the inhibition constant (Ki) (in general, a dissociation constant, usually derived from enzyme kinetics or from competition with a known ligand) in test [1] stood at 482 nM. Moreover, the IC50 – broadly, the concentration at which inhibition is half-maximal – in test [2] was 980 nM.
In the same order, the values of `CC(C)(C)CC(=O)C(=O)N1CCCC[C@H]1C(=O)OC(CCCc1ccccc1)CC/N=C(S)/N=C1\C=CC(=C2c3ccc(O)cc3Oc3cc(O)ccc32)C(C(=O)O)=C1` (stereo partly drawn) are 32 nM and 250 nM.
Turning to `COc1cc(C(=O)C(=O)N2CCCC[C@H]2C(=O)OCCCC/N=C(S)/N=C2\C=CC(=C3c4ccc(O)cc4Oc4cc(O)ccc43)C(C(=O)O)=C2)cc(OC)c1OC`, the Ki in test [1] was found to be 526 nM. Also, the IC50 in test [2] is 410 nM.
Compound `CCC(C)(C)C(=O)C(=O)N1CCC[C@H]1C(=O)OCCC/N=C(S)/N=C1\C=CC(=C2c3ccc(O)cc3Oc3cc(O)ccc32)C(C(=O)O)=C1` returned a Ki in test [1] of 1300 nM. The IC50 in test [2] stood at 1650 nM.
